Tests used:
[1] = GSH and MDA in LTE rats; type: in vivo, Sprague-Dawley rats; settings: 25 mg/kg/day, data not shown
[2] = Endurance capacity, treadmill running to exhaustion after 8 weeks long-term exercise (LTE); type: in vivo, Sprague-Dawley rats; settings: exercise (LTE) rats, 25 mg/kg/day by gavage
Description: Sprague-Dawley male rats were purchased from a commercial breeder (SLAC, Shanghai). The rats were housed in a temperature—(22-28° C.) and humidity—(60%) controlled animal room and maintained on a 12-h light/12-h dark cycle (light on from 08:00 a.m. to 08:00 p.m.) with free access to food and water throughout the experiments. […] rats weighing 180-200 g were used. At the beginning of experiments, male rats were selected by one week running exercise at low speed (10 m/min, 20 min/day) and those high exercise activity rats were chosen for the experiments. Rats were randomly divided into four groups: Sedentary, Sedentary with HT supplement (25 mg/kg/day), Endurance exercise and Endurance exercise with HT supplement (25 mg/kg/day). HT was administrated by gavage 45 min before exercise program for each animal. Rats were run on a motorized treadmill at a speed of 20 m/min and a grade of 5° for 1 hour per day and 6 days per week. After 8 weeks exercise, endurance capacity was measured by treadmill running to exhaustion at a speed of 30 m/min and a grade of 5°. Exhaustion was defined as the inability to maintain running and avoid sound and light irritation.

[3] = test system: genes of calcium signaling and flux; assay: Gene chip analysis of human skeletal muscle biopsies (vastus lateralis), Human Genome U133 Plus 2.0; type: in vivo; settings: 6 weeks, human muscle biopsy
Description: Three groups each n=20 were enrolled in the study. The group assignment was randomly done by subject weight across the 3 groups. Each subject received a total of 3 capsules each day over a period of 6 weeks: • Group 1—Placebo: 3 capsules with each 333 mg of modified starch • Group 2—LOW (50 mg/d hydroxytyrosol): 1 capsule with 333 mg investigational product (1 capsule with 50 mg hydroxytyrosol) and 2 capsules with each 333 mg modified starch • Group 3—HIGH (150 mg/d hydroxytyrosol): 3 capsules with each 333mg investigational product ([…])
Muscle biopsy was performed at 2 h after ingestion of the supplements as it had taken 30 min setup time before the tissue can be removed. Two skeletal muscle tissue biopsies were taken at beginning (day 1, baseline sample) of the study and at day 42. The following was assessed in skeletal muscle tissue: 1) global gene expression profile and 2) cellular factors in tissue involved in energy metabolism or other specific pathways.
A muscle biopsy (100 mg) was taken from the vastus lateralis, a thigh muscle.
The skin was cleaned with 10% povidone-iodine (Betadine Solution, Purdue Pharma L.P., Stamford, Conn.) and then anesthetized by injecting 1.5 cc of 1% Lidocaine-HCL into the skin. A 5-8 mm incision was made in the skin and subcutaneous fat, and then approximately 100 mg of muscle tissue was removed using a Bergstrom biopsy needle from the thigh musculature (Dyna Medical, London, Ont. Canada).
The biopsy was trimmed of adipose and connective tissue, weighted and separated into 25 mg and 75 mg, placed into labelled and cooled cryotubes and immediately frozen in liquid nitrogen. Samples are stored at −80° C. for subsequent analysis. The incision site will be sealed using butterfly bandages, then wrapped with a pressure pack to minimize bruising. Approximately 25 mg of muscle tissue was used to determine the effect of the olive product on the gene expression profile involved in the energy metabolism. Neither the Sponsor nor the investigator has performed genetic finger printing and has destroyed any remaining tissue after their testing has been completed.
RNA extraction from frozen tissue samples (skeletal muscle biopsies) as described above was done using Trizol method as followed:
RNA was processed using the 3′IVT Express Kit (Affymetrix, Cat. No. 901229) according to the manual.
Fragmented aRNA for each sample was hybridized onto a Human Genome U133 Plus 2.0 Gene Chip (Affymetrix, Cat. No. 900467).
All CEL files from Affymetrix were uploaded into the analysis software (Partek) using GCRMA. GCRMA is a method of converting CEL files into expression set using the Robust Multi-array Average (RMA) with the help of probe sequence and with GC-content background correction. It is a method for normalizing and summarizing probe-level intensity measurements from Affymetrix GeneChips. Three steps: Background correction, normalization, summarization.
After GCRMA preprocessing of the .CEL files, we exported the log 2-transformed expression values from Partek and imported them into the R statistics software (version 2.9.2, http://www.R-project.org). The 57 subjects for which both a pre- and a post-measurement was available were included in the analysis. We applied an ANCOVA (analysis of covariance) with the baseline measurement as covariate to each of the 54675 probesets. The aim was to compare the treatment effect between the groups, while adjusting for the individual baselines which might differ between subjects. The treatment effect between groups can thus be estimated more precisely since the subject-to-subject variability can be separated from the within-subject variability. The baseline and the end-measurements correlated well with each other within the subjects. […]

## OCCc1ccc(O)c(O)c1 [hydroxytyrosol, 3,4-dihydroxyphenylethanol]
[1]
  GSH: no effect
  MDA: no effect
[2]
  improvement of endurance capacity: 35%
[3]; 50 mg HT/d
  baseline-corrected fold-change vs placebo: ATPase, Ca++ transporting, cardiac muscle, fast twitch 1: 1.11
  baseline-corrected fold-change vs placebo: ATPase, Ca++ transporting, plasma membrane 2: 1.06
  baseline-corrected fold-change vs placebo: ATPase, Ca++ transporting, plasma membrane 4: 1.10
  baseline-corrected fold-change vs placebo: ATPase, Ca++ transporting, type 2C, member 1: 1.07
  baseline-corrected fold-change vs placebo: C2 calcium-dependent domain containing 3: 1.13
  baseline-corrected fold-change vs placebo: EF-hand calcium binding domain 2: 1.09
  baseline-corrected fold-change vs placebo: EF-hand calcium binding domain 7: 1.00
  baseline-corrected fold-change vs placebo: S100 calcium binding protein A4: 1.07
  baseline-corrected fold-change vs placebo: S100 calcium binding protein A8: 1.08
  baseline-corrected fold-change vs placebo: S100 calcium binding protein A10: 1.06
  baseline-corrected fold-change vs placebo: S100 calcium binding protein A13: 1.05
  baseline-corrected fold-change vs placebo: S100 calcium binding protein B: 1.05
  baseline-corrected fold-change vs placebo: annexin A1: 1.11
  baseline-corrected fold-change vs placebo: annexin A2: 1.13
  baseline-corrected fold-change vs placebo: annexin A2 pseudogene 2: 1.09
  baseline-corrected fold-change vs placebo: annexin A6: 1.06
  baseline-corrected fold-change vs placebo: annexin A11: 1.04
  baseline-corrected fold-change vs placebo: cadherin, EGF LAG seven-pass G-type receptor 2 (flamingo homolog, Drosophila): 1.08
  baseline-corrected fold-change vs placebo: calbindin 2: 1.06
  baseline-corrected fold-change vs placebo: calcineurin-like phosphoesterase domain containing 1: 1.11
  baseline-corrected fold-change vs placebo: calcium and integrin binding family member 2: 0.98
  baseline-corrected fold-change vs placebo: calcium binding protein 4: 1.07
  baseline-corrected fold-change vs placebo: calcium binding protein 39: 1.07
  baseline-corrected fold-change vs placebo: calcium channel, voltage-dependent, L type, alpha 1S subunit: 1.03
  baseline-corrected fold-change vs placebo: calcium channel, voltage-dependent, beta 1 subunit: 1.02
  baseline-corrected fold-change vs placebo: calcium channel, voltage-dependent, gamma subunit 1: 1.03
  baseline-corrected fold-change vs placebo: calcium channel, voltage-dependent, gamma subunit 6: 1.06
  baseline-corrected fold-change vs placebo: calcium/calmodulin-dependent protein kinase II delta: 1.09
  baseline-corrected fold-change vs placebo: calcium/calmodulin-dependent protein kinase kinase 2, beta: 1.11
  baseline-corrected fold-change vs placebo: calmodulin 1 (phosphorylase kinase, delta): 1.14
  baseline-corrected fold-change vs placebo: calmodulin 3 (phosphorylase kinase, delta): 1.09
  baseline-corrected fold-change vs placebo: calmodulin regulated spectrin-associated protein 1: 1.04
  baseline-corrected fold-change vs placebo: calnexin: 0.98
  baseline-corrected fold-change vs placebo: calpain 2, (m/II) large subunit: 1.04
  baseline-corrected fold-change vs placebo: calpain 3, (p94): 0.99
  baseline-corrected fold-change vs placebo: calreticulin: 1.06
  baseline-corrected fold-change vs placebo: protein phosphatase 3, catalytic subunit, alpha isozyme: 1.09
  baseline-corrected fold-change vs placebo: regulator of calcineurin 1: 1.07
  baseline-corrected fold-change vs placebo: ryanodine receptor 3: 1.23
  baseline-corrected fold-change vs placebo: striatin, calmodulin binding protein 3: 1.13
[3]; 150 mg HT/d
  baseline-corrected fold-change vs placebo: ATPase, Ca++ transporting, cardiac muscle, fast twitch 1: 1.196
  baseline-corrected fold-change vs placebo: ATPase, Ca++ transporting, plasma membrane 2: 1.174
  baseline-corrected fold-change vs placebo: ATPase, Ca++ transporting, plasma membrane 4: 1.023
  baseline-corrected fold-change vs placebo: ATPase, Ca++ transporting, type 2C, member 1: 1.080
  baseline-corrected fold-change vs placebo: C2 calcium-dependent domain containing 3: 1.078
  baseline-corrected fold-change vs placebo: EF-hand calcium binding domain 2: 1.080
  baseline-corrected fold-change vs placebo: EF-hand calcium binding domain 7: 1.075
  baseline-corrected fold-change vs placebo: S100 calcium binding protein A4: 1.114
  baseline-corrected fold-change vs placebo: S100 calcium binding protein A8: 1.056
  baseline-corrected fold-change vs placebo: S100 calcium binding protein A10: 1.045
  baseline-corrected fold-change vs placebo: S100 calcium binding protein A13: 1.064
  baseline-corrected fold-change vs placebo: S100 calcium binding protein B: 1.019
  baseline-corrected fold-change vs placebo: annexin A1: 1.070
  baseline-corrected fold-change vs placebo: annexin A2: 1.047
  baseline-corrected fold-change vs placebo: annexin A2 pseudogene 2: 1.007
  baseline-corrected fold-change vs placebo: annexin A6: 1.062
  baseline-corrected fold-change vs placebo: annexin A11: 1.065
  baseline-corrected fold-change vs placebo: cadherin, EGF LAG seven-pass G-type receptor 2 (flamingo homolog, Drosophila): 1.030
  baseline-corrected fold-change vs placebo: calbindin 2: 1.006
  baseline-corrected fold-change vs placebo: calcineurin-like phosphoesterase domain containing 1: 1.070
  baseline-corrected fold-change vs placebo: calcium and integrin binding family member 2: 1.114
  baseline-corrected fold-change vs placebo: calcium binding protein 4: 1.024
  baseline-corrected fold-change vs placebo: calcium binding protein 39: 1.082
  baseline-corrected fold-change vs placebo: calcium channel, voltage-dependent, L type, alpha 1S subunit: 1.080
  baseline-corrected fold-change vs placebo: calcium channel, voltage-dependent, beta 1 subunit: 1.125
  baseline-corrected fold-change vs placebo: calcium channel, voltage-dependent, gamma subunit 1: 1.087
  baseline-corrected fold-change vs placebo: calcium channel, voltage-dependent, gamma subunit 6: 1.178
  baseline-corrected fold-change vs placebo: calcium/calmodulin-dependent protein kinase II delta: 1.113
  baseline-corrected fold-change vs placebo: calcium/calmodulin-dependent protein kinase kinase 2, beta: 1.033
  baseline-corrected fold-change vs placebo: calmodulin 1 (phosphorylase kinase, delta): 1.153
  baseline-corrected fold-change vs placebo: calmodulin 3 (phosphorylase kinase, delta): 1.041
  baseline-corrected fold-change vs placebo: calmodulin regulated spectrin-associated protein 1: 1.089
  baseline-corrected fold-change vs placebo: calnexin: 1.066
  baseline-corrected fold-change vs placebo: calpain 2, (m/II) large subunit: 1.053
  baseline-corrected fold-change vs placebo: calpain 3, (p94): 1.082
  baseline-corrected fold-change vs placebo: calreticulin: 1.044
  baseline-corrected fold-change vs placebo: protein phosphatase 3, catalytic subunit, alpha isozyme: 1.048
  baseline-corrected fold-change vs placebo: regulator of calcineurin 1: 1.009
  baseline-corrected fold-change vs placebo: ryanodine receptor 3: 1.355
  baseline-corrected fold-change vs placebo: striatin, calmodulin binding protein 3: 1.024
